This passage reports T/C results from PubChem BioAssay AID264 (DTP/NCI, 2004).

This assay has as its system nude mice, LX-1 lung xenograft intrarenal, tumor weight T/C. Description: NCI In Vivo Anticancer Drug Screen. Data for tumor model Human Lung LX-1 Xenograft (intrarenal inoculation) in NU/NU Swiss (nude) mice. The conditions noted are these: endpoint: mean tumor weight change, higher = larger tumour. The gist of the method:
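Antitumor effect is expressed as a ratio: the mean tumor measurement of the drug-treated group relative to that of the vehicle-dosed control group.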

Where [1] appears, read: dose: 100.0 mg/kg/injection, schedule: Q04DX003 (sc), vehicle: Klucel (hydroxypropylcellulose) (HPC).
Setting [2] is: dose: 2400.0 mg/kg/injection, schedule: Q04DX003 (sc), vehicle: suspension in saline.
Where [3] appears, read: dose: 0.25 mg/kg/injection, schedule: Q01DX010 (sc), vehicle: saline.
Setting [4] is: dose: 300.0 mg/kg/injection, schedule: Q04DX003 (sc), vehicle: Klucel (hydroxypropylcellulose) (HPC).
Setting [5] is: dose: 600.0 mg/kg/injection, schedule: Q04DX003 (sc), vehicle: Klucel (hydroxypropylcellulose) (HPC).
Where [6] appears, read: dose: 1200.0 mg/kg/injection, schedule: Q04DX003 (sc), vehicle: Klucel (hydroxypropylcellulose) (HPC).
The mark [7] stands for this setting: dose: 2400.0 mg/kg/injection, schedule: Q04DX003 (sc), vehicle: Klucel (hydroxypropylcellulose) (HPC).
The mark [8] stands for this setting: dose: 800.0 mg/kg/injection, schedule: Q04DX003 (sc), vehicle: saline.

Values joined by “and” are separate entries in the source; they are usually repeats but may differ in a detail not shown here. Identical values can stand only once. Records with an inconclusive call do not appear.

In the case of `O=C(O)/C=C/C(=O)Nc1ccc(Cl)c(Cl)c1`, the T/C was 95 % of control under setting [1] and 91 % of control (dose: 200.0 mg/kg/injection, schedule: Q04DX003 (sc), vehicle: Klucel (hydroxypropylcellulose) (HPC)).
In the case of `C[C@@H]1C[C@H]2[C@@H]3CCC4=CC(=O)C=C[C@]4(C)[C@@]3(F)[C@@H](O)C[C@]2(C)[C@@]1(O)C(=O)CO`, the T/C was 41 % of control (dose: 1.56 mg/kg/injection, schedule: Q01DX010 (sc), vehicle: Klucel (hydroxypropylcellulose) (HPC)); 32 % of control (dose: 3.13 mg/kg/injection, schedule: Q01DX010 (sc), vehicle: Klucel (hydroxypropylcellulose) (HPC)); 33 % of control (dose: 6.25 mg/kg/injection, schedule: Q01DX010 (sc), vehicle: Klucel (hydroxypropylcellulose) (HPC)); 26 % of control (dose: 12.5 mg/kg/injection, schedule: Q01DX010 (sc), vehicle: Klucel (hydroxypropylcellulose) (HPC)).
For the molecule `COc1nc(=O)n(C2C=CC(=O)O2)cc1F` (stereo unspecified), the T/C reads like this: (dose: 25.0 mg/kg/injection, schedule: Q04DX003 (sc), vehicle: Klucel (hydroxypropylcellulose) (HPC)) 66 % of control; (dose: 50.0 mg/kg/injection, schedule: Q04DX003 (sc), vehicle: Klucel (hydroxypropylcellulose) (HPC)) 54 % of control; under setting [1], 37 % of control.
Turning to `COc1cc2cc3cc4cc(OC)c(OC)cc4c(C)[n+]3cc2cc1OC` (tested in a mixture with another compound), the T/C (dose: 300.0 mg/kg/injection, schedule: Q04DX003 (sc), vehicle: suspension in saline) is 105 % of control; the T/C (dose: 600.0 mg/kg/injection, schedule: Q04DX003 (sc), vehicle: suspension in saline) is 71 % of control; the T/C (dose: 1200.0 mg/kg/injection, schedule: Q04DX003 (sc), vehicle: suspension in saline) is 71 % of control; the T/C under setting [2] was 53 % of control.
On to `NC(=S)N/N=C/c1ccc(O)cn1`, for which the T/C (dose: 50.0 mg/kg/injection, schedule: Q04DX003 (sc), vehicle: saline with Tween-80) is 102 % of control; the T/C (dose: 100.0 mg/kg/injection, schedule: Q04DX003 (sc), vehicle: saline with Tween-80) was 94 % of control; the T/C (dose: 200.0 mg/kg/injection, schedule: Q04DX003 (sc), vehicle: saline with Tween-80) is 96 % of control; the T/C (dose: 400.0 mg/kg/injection, schedule: Q04DX003 (sc), vehicle: saline with Tween-80) is 64 % of control.
Consider `COc1cc([C@@H]2c3cc4c(c(O)c3C[C@H]3COC(=O)[C@@H]32)OCO4)cc(OC)c1O`, for which the T/C by setting is: (dose: 0.06 mg/kg/injection, schedule: Q01DX010 (sc), vehicle: saline) 97 % of control; (dose: 0.12 mg/kg/injection, schedule: Q01DX010 (sc), vehicle: saline) 91 % of control; under setting [3], 74 % of control; (dose: 0.5 mg/kg/injection, schedule: Q01DX010 (sc), vehicle: saline) 205 % of control; (dose: 1.0 mg/kg/injection, schedule: Q01DX010 (sc), vehicle: saline) 76 % of control.
Take `C=C(C)[C@H]1Cc2c(ccc3c2O[C@@H]2COc4cc(OC)c(OC)cc4[C@@H]2C3=O)O1`: the T/C reads like this: (dose: 2.0 mg/kg/injection, schedule: Q01DX010 (sc), vehicle: saline with Tween-80) 286 % of control; (dose: 4.0 mg/kg/injection, schedule: Q01DX010 (sc), vehicle: saline with Tween-80) 62 % of control.
As to `O=NN(CCCl)C(=O)Oc1ccc(OC(=O)N(CCCl)N=O)cc1`, the T/C under setting [4] was 110 % of control, the T/C under setting [5] was 70 % of control and the T/C under setting [6] is 49 % of control.
`CCN(CC)CCCC(C)Nc1c2ccc(Cl)cc2nc2ccc(OC)cc12` (stereo unspecified): the T/C by setting is: (dose: 12.5 mg/kg/injection, schedule: Q01DX010 (sc), vehicle: saline with Tween-80) 98 % of control; (dose: 25.0 mg/kg/injection, schedule: Q01DX010 (sc), vehicle: saline with Tween-80) 102 % of control and 108 % of control; (dose: 150.0 mg/kg/injection, schedule: Q04DX003 (sc), vehicle: saline with Tween-80) 75 % of control; (dose: 300.0 mg/kg/injection, schedule: Q04DX003 (sc), vehicle: saline with Tween-80) 41 % of control.
For the molecule `Clc1ccc(CN2COc3c(ccc4cccnc34)C2)cc1Cl`, the T/C is, setting by setting: (dose: 100.0 mg/kg/injection, schedule: Q01DX010 (sc), vehicle: saline with Tween-80) 110 % of control; (dose: 200.0 mg/kg/injection, schedule: Q01DX010 (sc), vehicle: saline with Tween-80) 87 % of control; (dose: 400.0 mg/kg/injection, schedule: Q01DX010 (sc), vehicle: saline with Tween-80) 97 % of control; (dose: 800.0 mg/kg/injection, schedule: Q01DX010 (sc), vehicle: saline with Tween-80) 110 % of control.
As to `CCN1C=C/C(=C\C=C/c2cc[n+](CC)c3ccccc23)c2ccccc21`, under setting [3], the T/C is 195 % of control.
Consider `COc1cc(OC)c(OC)cc1/C=C\c1ccnc2ccccc12`, for which the T/C by setting is: under setting [4], 62 % of control; under setting [5], 82 % of control; under setting [6], 90 % of control; under setting [7], 81 % of control.
As for `C[Si](C)(C)OSc1ccccc1[N+](=O)[O-]`, the T/C under setting [4] was 150 % of control, the T/C under setting [5] is 151 % of control and the T/C under setting [7] is 123 % of control.
`C[CH2][Sn]([CH2]C)([CH2]C(=O)OC)[CH2]C(=O)OC`: the T/C reads like this: (dose: 6.25 mg/kg/injection, schedule: Q04DX003 (sc), vehicle: saline with Tween-80) 97 % of control; (dose: 12.5 mg/kg/injection, schedule: Q04DX003 (sc), vehicle: saline with Tween-80) 92 % of control; (dose: 25.0 mg/kg/injection, schedule: Q04DX003 (sc), vehicle: saline with Tween-80) 70 % of control.
Take `CCN(Cc1ccc(Cl)c(Cl)c1)c1ccc2nc(N)nc(N)c2c1C`: for the setting “dose: 37.5 mg/kg/injection, schedule: Q04DX003 (sc), vehicle: water”, the T/C is 62 % of control.
In the case of `NC(=O)c1csc(C2OC(CO)C(O)C2O)n1` (stereo unspecified), the T/C (dose: 200.0 mg/kg/injection, schedule: Q04DX003 (sc), vehicle: water) is 77 % of control; the T/C (dose: 400.0 mg/kg/injection, schedule: Q04DX003 (sc), vehicle: water) is 64 % of control; the T/C (dose: 800.0 mg/kg/injection, schedule: Q04DX003 (sc), vehicle: water) is 99 % of control; the T/C (dose: 1600.0 mg/kg/injection, schedule: Q04DX003 (sc), vehicle: water) was 97 % of control.
Turning to `NC(=O)CC(N)C(=O)O` (stereo unspecified), the T/C runs as follows: under setting [8], 87 % of control; (dose: 1600.0 mg/kg/injection, schedule: Q04DX003 (sc), vehicle: saline) 102 % of control; (dose: 3200.0 mg/kg/injection, schedule: Q04DX003 (sc), vehicle: saline) 77 % of control.
Regarding `CN(CO)c1nc(N(C)CO)nc(N(C)CO)n1`, the T/C (dose: 25.0 mg/kg/injection, schedule: Q01DX010 (sc), vehicle: saline) was 92 % of control; the T/C (dose: 50.0 mg/kg/injection, schedule: Q01DX010 (sc), vehicle: saline) was 57 % of control; the T/C (dose: 100.0 mg/kg/injection, schedule: Q01DX010 (sc), vehicle: saline) was 49 % of control.
For the molecule `Nc1ncn(C2OC(CO)C(O)C2O)c(=O)n1` (stereo unspecified), the T/C was 164 % of control (dose: 0.19 mg/kg/injection, schedule: Q01DX010 (sc), vehicle: saline); 40 % of control (dose: 0.75 mg/kg/injection, schedule: Q01DX010 (sc), vehicle: saline); 101 % of control (dose: 10.0 mg/kg/injection, schedule: Q04DX003 (sc), vehicle: saline); 52 % of control (dose: 20.0 mg/kg/injection, schedule: Q04DX003 (sc), vehicle: saline); 86 % of control (dose: 100.0 mg/kg/injection, schedule: Q04DX003 (sc), vehicle: saline); 64 % of control (dose: 200.0 mg/kg/injection, schedule: Q04DX003 (sc), vehicle: saline). Further, the T/C (dose: 200.0 mg/kg/injection, schedule: Q04DX003 (sc), vehicle: suspension in saline) was 45 % of control; the T/C (dose: 400.0 mg/kg/injection, schedule: Q04DX003 (sc), vehicle: saline) was 35 % of control; the T/C under setting [8] is 16 % of control; the T/C (dose: 800.0 mg/kg/injection, schedule: Q04DX003 (sc), vehicle: suspension in saline) is 19 % of control and 28 % of control; the T/C (dose: 1228.8 mg/kg/injection, schedule: Q04DX003 (sc), vehicle: suspension in saline) is -72 % of control; the T/C (dose: 1600.0 mg/kg/injection, schedule: Q04DX003 (sc), vehicle: suspension in saline) was 12 % of control and 14 % of control. Moreover, the T/C by setting is: (dose: 1920.0 mg/kg/injection, schedule: Q04DX003 (sc), vehicle: suspension in saline) -100 % of control; under setting [2], -100 % of control.
